Laboratory results published in US10487045B2, “Adamantane derivative and use thereof” (TOHOKU UNIVERSITY, priority 2016, dated 2019).

Tested on: ob/ob
Assay: Hypoglycemic effect, blood glucose level by assay kit
Type: in vivo
Settings: 1 mg/kg chronic treatment for 4 weeks; effect on and after 3 weeks; vs ob/ob (saline)
Experimental: A hypoglycemic effect by TP-014 was checked by measuring the blood glucose level by an assay kit (manufactured by Technicon International co). The measurement was carried out for 4 weeks. […] As a control, tolbutamide was used. Kir6.2 channel binds to SUR1 ([…]) on the cell membrane to form a channel. Action mechanism is considered due to Kir6.2 channel inhibitory action. Tolbutamide binds to SUR1 to inhibit Kir6.2 channel.

## O=C(N[C@@H](c1ccccc1)[C@H]1[C@H]2C[C@@H]3C[C@](Cl)(C2)C[C@@]1(OC(=O)C(F)(F)F)C3)C(F)(F)F [TP-014, (1S,2R,3S,5S,7S)-5-chloro-2-((R)-phenyl(2,2,2-trifluoroacetamido)methyl)adamantan-1-yl 2,2,2-trifluoroacetate]
  blood glucose level: significantly decreased
